Key:
[1] = normal temperature; cited from earlier work
[2] = adsorption and desorption by heating the active carbon in a dryer at 99° C. (Example 3); type: physicochemical; settings: Tables 3 and 4, 99° C. for 48 hours
Protocol: An active carbon (Specific surface area: 500-2,000 m^2/g) (0.1 g), to which 2,3,3,3-tetrafluoro-2-[1,1,2,3,3,3-hexafluoro-2-(trifluoromethoxy)propoxy]-propanoic acid was adsorbed until reaching the breakthrough point, was charged into a dryer and left at a temperature of 99° C. for 48 hours. The desorption amount was taken as the same as an adsorption amount in adsorption again after the desorption.

solubility in water = type: physicochemical; settings: normal temperature
Excerpt: A fluorocarboxylic acid having an ether bond, for example, 2,3,3,3-tetrafluoro-2-[1,1,2,3,3,3-hexafluoro-2-(trifluoromethoxy)propoxy]-propanoic acid has a solubility in water of about 10% at normal temperature, which is about 50 times of the solubility of perfluorooctanoic acid (PFOA) in water. Therefore, the adsorption rate of general active carbon, for example, general-purpose active carbon for waste water which was conventionally used is 5% or less at normal temperature and pH 7.

Structure (SMILES): O=C(O)C(F)(OC(F)(F)C(F)(OC(F)(F)F)C(F)(F)F)C(F)(F)F (stereo not drawn) [2,3,3,3-tetrafluoro-2-[1,1,2,3,3,3-hexafluoro-2-(trifluoromethoxy)propoxy]-propanoic acid]
- solubility in water [1]: about 10%
- desorption compared with perfluorohexanoic acid [2]: higher desorption
- solubility in water relative to perfluorooctanoic acid (PFOA) (solubility in water): about 50 times

Source: US9199862B2, “Method for adsorbing fluorocarboxylic acid having ether bond and method for collecting same” (DAIKIN INDUSTRIES, LTD., priority 2009, dated 2015)
